# Measured values: patent US8697662B2, “Methods for treating Kaposi sarcoma” (PTC Therapeutics, Inc., priority 2009, dated 2014)
# How the values were obtained:
# [1] = tested on: SKNEP orthotopic xenografts; test: Orthotopic SKNEP Ewing sarcoma tumor model (kidney capsule), tumor weight; type: in vivo; details: 5 weeks of treatment
# Text: Experimental Design. In orthotopic tumor models, human tumor cells are implanted into the mouse in an organ that corresponds to the location from which the tumors arise. Such models may provide a better predictor of clinical efficacy than injection of tumors into the flanks of nude mice. See Hoffman, Invest. New Drugs 1999, 17(4):343-59. SY5Y neuroblastoma or SKNEP Ewing sarcoma tumor cells (1×10^6 cells/mouse) were implanted into the kidney capsule of female athymic nude mice according to published methods. See Huang et al., Proc. Natl. Acad. Sci. USA 2003, 100(13):7785-90. One week after implantation of each type of tumor, mice were divided into 2 groups and were administered a test Compound as shown in Table 21.
# After 5 weeks of treatment, the mice were sacrificed, and the weights of the tumors were assessed.
# HT1080 cells = test: Kinetics of S-phase transit by BrdU incorporation in HT1080 cells; type: cell-based, human; details: HT1080, 18-hour treatment
# Protocol: Experimental Design. HT 1080 cells are exposed to BrdU (bromodeoxyuridine, a synthetic nucleoside that is an analogue of thymidine and is incorporated into DNA during the S phase of cell division) (FITC BrdU Flow Kit, BD Pharmingen catalog #552598). Cells are grown and treated as described in Section 9.3.1.3 above with the exception that one hour prior to harvesting by trypsinization, BrdU (final concentration 1 μM) is added to each culture for 1 hour. Cells actively replicating DNA during this brief time incorporate the BrdU into the DNA, which can then be quantitated. BrdU content is quantitated with using the FITC BrdU Flow Kit as instructed by the manufacturer. The process includes fixation (paraformaldehyde) and DNA staining with 7-AAD (7-amino-actinomycin D) followed by incubation with a fluoro-tagged anti-BrdU antibody that specifically recognizes BrdU incorporated into DNA. Dual channel FACS analysis permits assessment of both the DNA content of individual cells and the rate of transit across the S-phase, which is assessed based upon BrdU incorporation over the one hour treatment period.
# [2] = Respiratory safety pharmacology study in awake telemeterized dogs; type: in vivo, beagle dogs; details: single oral doses of 30, 60, and 120 mg/kg, male dogs
# [3] = Phase 1 escalating multiple-dose study in healthy volunteers: pharmacokinetics (Table 28); type: in vivo, human
# Protocol: The study was performed under the oversight of the French health authorities. The study was not performed under an IND.
# Methods. The trial was a Phase 1, randomized, escalating multiple dose, single center study conducted in 2 stages.
# Capsules contained 2 mg or 20 mg of active substance.
# Capsules contained 20 mg or 25 mg of active substance.
# Noncompartmental methods were used to compute Tmax, Cmax, and AUC. Dose proportionality and sex effect were evaluated using ANOVA on log transformed PK parameters using dose, sex, and dose by sex as fixed factors.
structure (smiles),measurement,setting,value
COc1ccc(C2c3[nH]c4ccc(Cl)cc4c3CCN2C(=O)Oc2ccc(Cl)cc2)cc1 (racemic) [Compound #10],tumor growth (tumor weight) (in words),[1],completely prevented growth
same,BrdU incorporation by individual cells during the one-hour period vs DMSO control (in words),HT1080 cells,incorporated less BrdU
same,percentage of cells residing in S-phase (in words),HT1080 cells; increasing doses,net increase
same,"respiratory rate, core body temperature, arterial blood gases, arterial pH, arterial bicarbonate",[2],no dose dependent or biologically significant changes
same,oral bioavailability (in words),[3],orally bioavailable
same,increases in mean Cmax and AUC0-24 with dose (in words),[3]; Stage 1 and Stage 2,generally dose proportional
same,target trough plasma concentration of ~0.1 to […] (in words),[3]; all dose levels,achieved
same,"accumulation of Cmax and AUC0-24, Day 1 to Day 7",[3]; continuous dosing 7 days,~2 fold
same,lag time before appearance in plasma,[3]; oral capsules,~30 min
